Test results: patent US12649750B2, “Macrocyclic compounds, compositions, and methods of using thereof” (Sionna Therapeutics Inc., priority 2022, dated 2026)

Experiments:
CFTR = target: T1, CFTR (Homo sapiens, UniProt P13569, DEL508-508); assay: TECC24 AUC fold over DMSO @10 μM, CFTR-mediated transepithelial chloride transport in CF-HBE cells; assay type: cell-based; conditions: test agent AUC divided by DMSO vehicle AUC, primary CF-HBE cells, ΔF508 homozygous donor, 48 hours incubation
T1 construct: Primary human bronchial epithelial cells from a ΔF508 homozygous CF donor; host or cells: primary human bronchial epithelial cells (CF-HBE), ΔF508 homozygous donor
How it was run: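 Value is ratio of test-agent to DMSO AUC of equivalent transepithelial Cl− current, integrated from forskolin (10 μM) stimulation to CFTR inhibitor-172 (20 μM) block, with benzamil 10 μM present. CF-HBE (ΔF508/ΔF508) cultures had 48 h compound exposure at 10 μM, 36.5° C before recording.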

NBD1 = target: T2, NBD1 (Homo sapiens, UniProt P13569); assay: Aggregation analysis using differential static light scattering (DSLS), thermal stability of NBD1 (ΔTagg); assay type: binding; conditions: ΔTagg versus DMSO control, NBD1 0.2 mg/ml
T2 construct: Purified recombinant NBD1 was produced using previously described methods; made in house
How it was run: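 Purified recombinant NBD1 at 0.2 mg/ml in 50 mM Tris-HCl, 150 mM NaCl, 5 mM MgCl2, 2 mM ATP, 2 mM DTT, pH 7.6, 1% glycerol, with compound, heated 1° C./min to 70° C. under light-scattering monitoring. Tagg taken at curve inflection; ΔTagg is compound Tagg minus mean DMSO-control Tagg, binned A (≤5° C.), B (>5-≤10° C.), C (>10-≤25° C.).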

T1 sequence (P13569 with tags, fused parts or gaps DEL508-508): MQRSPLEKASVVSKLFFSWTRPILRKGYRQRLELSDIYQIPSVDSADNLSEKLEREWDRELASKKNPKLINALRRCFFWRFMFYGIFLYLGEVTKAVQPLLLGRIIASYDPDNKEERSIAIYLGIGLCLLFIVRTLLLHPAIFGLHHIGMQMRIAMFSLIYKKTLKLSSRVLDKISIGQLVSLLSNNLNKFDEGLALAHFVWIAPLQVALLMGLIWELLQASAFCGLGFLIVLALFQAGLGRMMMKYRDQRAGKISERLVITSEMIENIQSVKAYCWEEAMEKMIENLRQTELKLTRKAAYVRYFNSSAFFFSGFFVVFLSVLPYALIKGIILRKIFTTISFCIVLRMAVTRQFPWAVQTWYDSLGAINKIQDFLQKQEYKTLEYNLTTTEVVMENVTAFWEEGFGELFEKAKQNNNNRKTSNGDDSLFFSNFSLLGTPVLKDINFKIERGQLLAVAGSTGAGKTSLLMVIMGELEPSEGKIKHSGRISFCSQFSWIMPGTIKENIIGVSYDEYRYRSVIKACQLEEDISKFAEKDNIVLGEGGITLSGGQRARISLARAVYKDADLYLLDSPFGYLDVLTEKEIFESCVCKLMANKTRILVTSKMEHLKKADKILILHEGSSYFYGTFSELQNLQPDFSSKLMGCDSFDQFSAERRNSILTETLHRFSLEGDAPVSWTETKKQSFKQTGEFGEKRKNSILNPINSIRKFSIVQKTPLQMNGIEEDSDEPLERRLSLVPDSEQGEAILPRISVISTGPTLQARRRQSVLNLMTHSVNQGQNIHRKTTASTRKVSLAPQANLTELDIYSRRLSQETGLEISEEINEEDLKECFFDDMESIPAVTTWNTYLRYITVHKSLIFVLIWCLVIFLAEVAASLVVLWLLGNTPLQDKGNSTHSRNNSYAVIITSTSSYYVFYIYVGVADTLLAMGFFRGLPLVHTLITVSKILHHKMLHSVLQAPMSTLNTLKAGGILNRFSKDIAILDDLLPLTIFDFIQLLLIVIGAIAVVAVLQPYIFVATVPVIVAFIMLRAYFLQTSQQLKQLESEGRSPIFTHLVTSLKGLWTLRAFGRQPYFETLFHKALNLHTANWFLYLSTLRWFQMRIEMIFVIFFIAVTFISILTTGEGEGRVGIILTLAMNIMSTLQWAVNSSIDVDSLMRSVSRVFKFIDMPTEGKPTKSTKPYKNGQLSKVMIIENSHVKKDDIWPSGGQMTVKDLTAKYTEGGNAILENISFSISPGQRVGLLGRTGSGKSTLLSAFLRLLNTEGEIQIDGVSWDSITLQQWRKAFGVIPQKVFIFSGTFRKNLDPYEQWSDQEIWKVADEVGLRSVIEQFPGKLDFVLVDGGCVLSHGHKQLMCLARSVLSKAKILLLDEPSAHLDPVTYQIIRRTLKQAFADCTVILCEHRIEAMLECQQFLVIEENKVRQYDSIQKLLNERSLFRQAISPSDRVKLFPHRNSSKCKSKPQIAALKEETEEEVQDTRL
T2 sequence (P13569 423-646 limits assumed): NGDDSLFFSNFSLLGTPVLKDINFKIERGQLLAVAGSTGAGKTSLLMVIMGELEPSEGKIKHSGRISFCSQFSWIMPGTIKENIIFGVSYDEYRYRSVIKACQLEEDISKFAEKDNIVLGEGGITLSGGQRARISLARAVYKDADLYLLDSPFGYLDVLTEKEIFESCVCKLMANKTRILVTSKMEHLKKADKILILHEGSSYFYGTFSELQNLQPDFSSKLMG

Compound | TECC (AUC, 10 μM) (CFTR) | DSLS 3D (100 μM ΔT) (NBD1)
CC(Cc1cccc(C2(C)CCCC(C)(C)CS(=O)(=O)CCc3c(c(F)cc4[nH]ccc34)Sc3ccc(F)c(c3)-c3nc2nn3C)c1)C(=O)O (single isomer, unassigned) [Compound 33B, 3-[3-(22,28-difluoro-3,6,10,10-tetramethyl-12,12-dioxo-12lambda6,24-dithia-3,4,19,30-tetrazapentacyclo[23.3.1.12,5.015,23.016,20]triaconta-1(29),2(30),4,15,17,20,22,25,27-nonaen-6-yl)phenyl]-2-methyl-propanoic Acid] | A (a TECC value less than 12 is marked “A”) | B (a value above 5 °C and less than or equal to 10 °C is marked “B”)
CC(Cc1cccc(C2(C)CCCC(C)(C)CS(=O)(=O)CCc3c(c(F)cc4[nH]ccc34)S(=O)(=O)c3ccc(F)c(c3)-c3nc2nn3C)c1)C(=O)O (single isomer, unassigned) [Compound 34A, 3-[3-(22,28-difluoro-3,6,10,10-tetramethyl-12,12,24,24-tetraoxo-12lambda6,24lambda6-dithia-3,4,19,30-tetrazapentacyclo[23.3.1.12,5.015,23.016,20]triaconta-1(29),2(30),4,15,17,20,22,25,27-nonaen-6-yl)phenyl]-2-methyl-propanoic Acid] | C (a value between 20 and 80 is marked “C”) | C (a value greater than 10 °C and less than or equal to 25 °C is marked “C”)
CC(Cc1cccc(C2(C)CCCC(C)(C)CS(=O)(=O)CCc3c(c(F)cc4[nH]ccc34)S(=O)(=O)c3ccc(F)c(c3)-c3nc2nn3C)c1)C(=O)O (single isomer, unassigned) [Compound 34B, 3-[3-(22,28-difluoro-3,6,10,10-tetramethyl-12,12,24,24-tetraoxo-12lambda6,24lambda6-dithia-3,4,19,30-tetrazapentacyclo[23.3.1.12,5.015,23.016,20]triaconta-1(29),2(30),4,15,17,20,22,25,27-nonaen-6-yl)phenyl]-2-methyl-propanoic Acid] | A (a TECC value less than 12 is marked “A”) | A (an ΔTagg value less than or equal to 5 °C is marked “A”)
CC1(C)CCCCC(C)(c2cccc(CCC(=O)O)c2)c2cnc([nH]2)-c2cc(ccc2F)Oc2c(F)cc3[nH]ccc3c2CCS(=O)(=O)C1 (single isomer, unassigned) [Compound 43A, 3-[3-(23,29-difluoro-6,11,11-trimethyl-13,13-dioxo-25-oxa-13lambda6-thia-3,20,31-triazapentacyclo[24.3.1.12,5.016,24.017,21]hentriaconta-1(30),2,4,16,18,21,23,26,28-nonaen-6-yl)phenyl]propanoic Acid] | A (a TECC value less than 12 is marked “A”) | A (an ΔTagg value less than or equal to 5 °C is marked “A”)
CC1(c2cccc(CCC(=O)O)c2)CCCC2(CC2)CS(=O)(=O)CCc2c(c(F)cc3[nH]ccc23)Oc2ccc(F)c(c2)-c2ncc1[nH]2 (single isomer, unassigned) [Compound 45A, 3-[3-(22,28-difluoro-6-methyl-12,12-dioxo-spiro [24-oxa-12lambda6-thia-3,19,30-triazapentacyclo[23.3.1.12, 5.015,23.016,20]triaconta-1(29),2,4,15,17,20,22,25,27-nonaene-10,1′-cyclopropane]-6-yl)phenyl]propanoic acid] | A (a TECC value less than 12 is marked “A”) | A (an ΔTagg value less than or equal to 5 °C is marked “A”)
CC1(c2cccc(CCC(=O)O)c2)CCCC2(CC2)CS(=O)(=O)CCc2c(c(F)cc3[nH]ccc23)Oc2ccc(F)c(c2)-c2ncc1[nH]2 (single isomer, unassigned) [Compound 45B, 3-[3-(22,28-difluoro-6-methyl-12,12-dioxo-spiro [24-oxa-12lambda6-thia-3,19,30-triazapentacyclo[23.3.1.12, 5.015,23.016,20]triaconta-1(29),2,4,15,17,20,22,25,27-nonaene-10,1′-cyclopropane]-6-yl)phenyl]propanoic acid] | A (a TECC value less than 12 is marked “A”) | C (a value greater than 10 °C and less than or equal to 25 °C is marked “C”)
CC1(C)CCCC(C)(c2cccc(OCC(=O)O)c2)c2cnc([nH]2)-c2cc(ccc2F)Oc2c(F)cc3[nH]ccc3c2CCS(=O)(=O)C1 (single isomer, unassigned) [Compound 54A, 2-[3-(22,28-difluoro-6,10,10-trimethyl-12,12-dioxo-24-oxa-12lambda6-thia-3,19,30-triazapentacyclo[23.3.1.12,5.015,23.016,20]triaconta-1(29),2,4,15,17,20,22,25,27-nonaen-6-yl)phenoxy]acetic acid] | C (a value between 20 and 80 is marked “C”) | C (a value greater than 10 °C and less than or equal to 25 °C is marked “C”)
CC1(C)CCCC(C)(c2cccc(OCC(=O)O)c2)c2cnc([nH]2)-c2cc(ccc2F)Oc2c(F)cc3[nH]ccc3c2CCS(=O)(=O)C1 (single isomer, unassigned) [Compound 54B, 2-[3-(22,28-difluoro-6,10,10-trimethyl-12,12-dioxo-24-oxa-12lambda6-thia-3,19,30-triazapentacyclo[23.3.1.12,5.015,23.016,20]triaconta-1(29),2,4,15,17,20,22,25,27-nonaen-6-yl)phenoxy]acetic acid] | A (a TECC value less than 12 is marked “A”) | B (a value above 5 °C and less than or equal to 10 °C is marked “B”)
Cn1nc2nc1C(C)(c1cccc(CCC(=O)O)c1)CCCC(C)(C)CS(=O)(=O)CCc1c(c(F)cc3[nH]ccc13)Oc1ccc(F)c-2c1 (single isomer, unassigned) [Compound 55A, 3-[3-(22,28-difluoro-4,6,10,10-tetramethyl-12,12-dioxo-24-oxa-12 lambda6-thia-3,4,19,30-tetrazapentacyclo[23.3.1.12,5.015,23.016,20]triaconta-1(29),2,5(30),15,17,20,22,25,27-nonaen-6yl)phenyl]propanoic Acid] | A (a TECC value less than 12 is marked “A”) | C (a value greater than 10 °C and less than or equal to 25 °C is marked “C”)
Cn1nc2nc1C(C)(c1cccc(CCC(=O)O)c1)CCCC(C)(C)CS(=O)(=O)CCc1c(c(F)cc3[nH]ccc13)Oc1ccc(F)c-2c1 (single isomer, unassigned) [Compound 55B, 3-[3-(22,28-difluoro-4,6,10,10-tetramethyl-12,12-dioxo-24-oxa-12 lambda6-thia-3,4,19,30-tetrazapentacyclo[23.3.1.12,5.015,23.016,20]triaconta-1(29),2,5(30),15,17,20,22,25,27-nonaen-6yl)phenyl]propanoic Acid] | A (a TECC value less than 12 is marked “A”) | B (a value above 5 °C and less than or equal to 10 °C is marked “B”)
CC1(C)CCCC(C)(c2cccc(CCC(=O)O)c2)c2nc(n[nH]2)-c2cc(ccc2F)Oc2c(F)cc3[nH]ccc3c2CCS(=O)(=O)C1 (single isomer, unassigned) [Compound 63A, 3-[3-(22,28-difluoro-6,10,10-trimethyl-12,12-dioxo-24-oxa-12λ6-thia-3,4,19,30-tetrazapentacyclo[23.3.1.12,5.015,23.016,20]triaconta-1(29),2,5(30),15,17,20,22,25,27-nonaen-6-yl)phenyl]propanoic Acid] | C (a value between 20 and 80 is marked “C”) | B (a value above 5 °C and less than or equal to 10 °C is marked “B”)
